Assay: Dissolution test in physiological saline (Test Example 1, FIG. 11)
Format: physicochemical
Conditions: 6 mg/mL as nintedanib in 100 mL physiological saline, 20° C., stirring
Method: The pharmaceutical composition (i) or the nintedanib ethanesulfonate (obtained from LC laboratories) was added to 100 mL of physiological saline so that the amount of nintedanib would be 6 mg/mL. The resultant mixture was subjected to a dissolution test at a liquid temperature of 20° C. under stirring with a stirrer.
FIG. 11 is a graph presenting the concentrations of nintedanib in the solutions measured over time.

SMILES: COC(=O)c1ccc2c(c1)NC(=O)/C2=C(\Nc1ccc(N(C)C(=O)CN2CCN(C)CC2)cc1)c1ccccc1 [nintedanib ethanesulfonate, Nintedanib ethanesulfonate]
- course of solubility (concentration of nintedanib in solution) over time: solubility decreased over time and sedimentation of insoluble matter was observed
